Measured values published in PubChem BioAssay AID220 (DTP/NCI, 2004).
“And” between values parts separate entries of the source, which are not always exact repeats. Equal values may be shown once. Inconclusive results are not listed.

Tested on: CD8F1 mice, subcutaneous mammary adenocarcinoma, T/C%
Assay: NCI In Vivo Anticancer Drug Screen. Data for tumor model Mammary Adenocarcinoma CD8F1 (subcutaneous) in CD8F1
Conditions: higher = larger tumour
Procedure, shortened: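 Antitumor activity is assessed in transplantable-tumor mice by comparing the treated group with a vehicle-treated control group. Survival or tumor size serves as the measure, reported as T divided by C.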

[1] = endpoint: median tumor weight change, dose: 250.0 mg/kg/injection, schedule: Q01DX001 (ip), vehicle: Klucel (hydroxypropylcellulose) (HPC)
[2] = endpoint: median tumor weight change, dose: 500.0 mg/kg/injection, schedule: Q01DX001 (ip), vehicle: Klucel (hydroxypropylcellulose) (HPC)
[3] = endpoint: median tumor weight change, dose: 1000.0 mg/kg/injection, schedule: Q01DX001 (ip), vehicle: Klucel (hydroxypropylcellulose) (HPC)
[4] = endpoint: median tumor weight (est.), dose: 12.5 mg/kg/injection, schedule: Q07DX005 (ip), vehicle: saline
[5] = endpoint: median tumor weight (est.), dose: 25.0 mg/kg/injection, schedule: Q07DX005 (ip), vehicle: saline
[6] = endpoint: median tumor weight (est.), dose: 50.0 mg/kg/injection, schedule: Q07DX005 (ip), vehicle: saline
[7] = endpoint: median tumor weight (est.), dose: 100.0 mg/kg/injection, schedule: Q07DX005 (ip), vehicle: saline
[8] = endpoint: median tumor weight (est.), dose: 12.5 mg/kg/injection, schedule: Q07DX005 (ip), vehicle: saline with Tween-80
[9] = endpoint: median tumor weight (est.), dose: 25.0 mg/kg/injection, schedule: Q07DX005 (ip), vehicle: saline with Tween-80
[10] = endpoint: median tumor weight (est.), dose: 50.0 mg/kg/injection, schedule: Q07DX005 (ip), vehicle: saline with Tween-80
[11] = endpoint: median tumor weight (est.), dose: 100.0 mg/kg/injection, schedule: Q07DX005 (ip), vehicle: saline with Tween-80
[12] = endpoint: median tumor weight (est.), dose: 6.25 mg/kg/injection, schedule: Q07DX005 (ip), vehicle: saline

Structure (SMILES): c1ccc2c(NCCCCCCCCNc3c4ccccc4nc4ccccc34)c3ccccc3nc2c1
- T/C (endpoint: median tumor weight (est.), dose: 5.0 mg/kg/injection, schedule: Q07DX005 (ip), vehicle: Klucel (hydroxypropylcellulose) (HPC)): 72 % of control
- T/C (endpoint: median tumor weight (est.), dose: 10.0 mg/kg/injection, schedule: Q07DX005 (ip), vehicle: Klucel (hydroxypropylcellulose) (HPC)): 56 % of control
- T/C (endpoint: median tumor weight (est.), dose: 20.0 mg/kg/injection, schedule: Q07DX005 (ip), vehicle: Klucel (hydroxypropylcellulose) (HPC)): 57 % of control
- T/C (endpoint: median tumor weight (est.), dose: 40.0 mg/kg/injection, schedule: Q07DX005 (ip), vehicle: Klucel (hydroxypropylcellulose) (HPC)): 46 % of control

Structure (SMILES): CNC(=O)c1cccc2c(Nc3ccc(NS(C)(=O)=O)cc3OC)c3cccc(C)c3nc12
- T/C (endpoint: median tumor weight change, dose: 60.0 mg/kg/injection, schedule: Q01DX001 (ip), vehicle: water): 6 % of control
- T/C (endpoint: median tumor weight change, dose: 62.5 mg/kg/injection, schedule: Q01DX001 (ip), vehicle: water): -63 % of control
- T/C (endpoint: median tumor weight change, dose: 120.0 mg/kg/injection, schedule: Q01DX001 (ip), vehicle: other): -68 % of control

Structure (SMILES): C[C@]12CCC(=O)C(O)=C1CC[C@@H]1[C@@H]2CC[C@]2(C)C(=O)CC[C@@H]12
- T/C (endpoint: median tumor weight (est.), dose: 100.0 mg/kg/injection, schedule: Q01DX001 (ip), vehicle: Klucel (hydroxypropylcellulose) (HPC)): 182 % of control
- T/C (endpoint: median tumor weight (est.), dose: 100.0 mg/kg/injection, schedule: Q07DX005 (ip), vehicle: Klucel (hydroxypropylcellulose) (HPC)): 32 % of control
- T/C (endpoint: median tumor weight (est.), dose: 200.0 mg/kg/injection, schedule: Q01DX001 (ip), vehicle: Klucel (hydroxypropylcellulose) (HPC)): 9 % of control
- T/C (endpoint: median tumor weight (est.), dose: 200.0 mg/kg/injection, schedule: Q07DX005 (ip), vehicle: Klucel (hydroxypropylcellulose) (HPC)): 62 % of control
- T/C (endpoint: median tumor weight (est.), dose: 400.0 mg/kg/injection, schedule: Q01DX001 (ip), vehicle: Klucel (hydroxypropylcellulose) (HPC)): 189 % of control
- T/C (endpoint: median tumor weight (est.), dose: 400.0 mg/kg/injection, schedule: Q07DX005 (ip), vehicle: Klucel (hydroxypropylcellulose) (HPC)): 32 % of control
- T/C (endpoint: median tumor weight (est.), dose: 800.0 mg/kg/injection, schedule: Q01DX001 (ip), vehicle: Klucel (hydroxypropylcellulose) (HPC)): 68 % of control
- T/C (endpoint: median tumor weight (est.), dose: 800.0 mg/kg/injection, schedule: Q07DX005 (ip), vehicle: Klucel (hydroxypropylcellulose) (HPC)): 54 % of control
- T/C (endpoint: median tumor weight change, dose: 125.0 mg/kg/injection, schedule: Q01DX001 (ip), vehicle: Klucel (hydroxypropylcellulose) (HPC)): 78 % of control
- T/C [1]: 91 % of control
- T/C [2]: 72 % of control
- T/C [3]: 68 % of control
- T/C (endpoint: median tumor weight change, dose: 2000.0 mg/kg/injection, schedule: Q01DX001 (ip), vehicle: Klucel (hydroxypropylcellulose) (HPC)): 72 % of control

Structure (SMILES): COc1ccc(CC2C(=O)NC(C)C(=O)N(C)C3C(=O)N(C)C(Cc4ccc(O)c(c4)Oc4ccc(cc4)C3O)C(=O)NC(C)C(=O)NC(C)C(=O)N2C)cc1 (stereo unspecified)
- T/C (endpoint: median tumor weight (est.), dose: 0.12 mg/kg/injection, schedule: Q07DX005 (ip), vehicle: suspension in saline): 116 % of control
- T/C (endpoint: median tumor weight (est.), dose: 0.25 mg/kg/injection, schedule: Q07DX005 (ip), vehicle: suspension in saline): 93 % of control
- T/C (endpoint: median tumor weight (est.), dose: 0.5 mg/kg/injection, schedule: Q07DX005 (ip), vehicle: suspension in saline): 95 % of control
- T/C (endpoint: median tumor weight (est.), dose: 1.0 mg/kg/injection, schedule: Q07DX005 (ip), vehicle: suspension in saline): 94 % of control
- T/C (endpoint: median tumor weight (est.), dose: 2.0 mg/kg/injection, schedule: Q07DX005 (ip), vehicle: suspension in saline): 99 % of control
- T/C (endpoint: median tumor weight (est.), dose: 4.0 mg/kg/injection, schedule: Q07DX005 (ip), vehicle: suspension in saline): 114 % of control

Structure (SMILES): Cc1cccc(-[n+]2noc(N)n2)c1
- T/C (endpoint: median tumor weight change, dose: 62.0 mg/kg/injection, schedule: Q01DX001 (ip), vehicle: water): 80 % of control
- T/C (endpoint: median tumor weight change, dose: 125.0 mg/kg/injection, schedule: Q01DX001 (ip), vehicle: water): 51 % of control

Structure (SMILES): O=C(O)c1ccc(SSc2ccc(C(=O)O)cn2)nc1
- T/C (endpoint: mean tumor weight, dose: 125.0 mg/kg/injection, schedule: Q07DX004 (ip), vehicle: saline): 123 % of control
- T/C (endpoint: mean tumor weight, dose: 250.0 mg/kg/injection, schedule: Q07DX004 (ip), vehicle: saline): 102 % of control
- T/C (endpoint: mean tumor weight, dose: 500.0 mg/kg/injection, schedule: Q07DX007 (ip), vehicle: saline): 99 % of control

Structure (SMILES): COc1cc2cc3cc4cc(OC)c(OC)cc4c(C)[n+]3cc2cc1OC (tested in a mixture with another compound)
- T/C [4]: 68 % of control
- T/C [5]: 88 % of control
- T/C [6]: 82 % of control
- T/C [7]: 90 % of control
- T/C (endpoint: median tumor weight (est.), dose: 200.0 mg/kg/injection, schedule: Q07DX005 (ip), vehicle: saline): 39 % of control

Structure (SMILES): Cc1cnc(/C=N\NC(N)=S)c2cccc(N)c12
- T/C (endpoint: median tumor weight (est.), dose: 3.12 mg/kg/injection, schedule: Q07DX005 (ip), vehicle: saline with Tween-80): 93 % of control
- T/C [8]: 83 % of control and 94 % of control
- T/C [9]: 54 % of control and 71 % of control
- T/C [10]: 46 % of control and 62 % of control
- T/C [11]: 55 % of control and 66 % of control

Structure (SMILES): COc1ccc([C@@]23Oc4cc(OC)cc(OC)c4[C@]2(O)[C@H](O)[C@H](C(=O)N(C)C)[C@H]3c2ccccc2)cc1
- T/C (endpoint: median tumor weight change, dose: 2.5 mg/kg/injection, schedule: Q01DX001 (ip), vehicle: Klucel (hydroxypropylcellulose) (HPC)): 212 % of control
- T/C (endpoint: median tumor weight change, dose: 5.0 mg/kg/injection, schedule: Q01DX001 (ip), vehicle: Klucel (hydroxypropylcellulose) (HPC)): 105 % of control
- T/C (endpoint: median tumor weight change, dose: 10.0 mg/kg/injection, schedule: Q01DX001 (ip), vehicle: Klucel (hydroxypropylcellulose) (HPC)): 72 % of control

Structure (SMILES): CN1CCN(CCCN2c3ccccc3Sc3ccc(C(F)(F)F)cc32)CC1
- T/C (endpoint: median tumor weight (est.), dose: 6.25 mg/kg/injection, schedule: Q07DX005 (ip), vehicle: saline with Tween-80): 178 % of control
- T/C [12]: 183 % of control
- T/C [8]: 202 % of control
- T/C [4]: 97 % of control
- T/C [9]: 65 % of control
- T/C [5]: 108 % of control
- T/C [6]: 162 % of control
- T/C [11]: 95 % of control
- T/C [7]: 70 % of control

Structure (SMILES): O=C1CC2(C(=O)N1CN1CCOCC1)c1ccccc1-c1ccccc12
- T/C [1]: 167 % of control
- T/C [2]: 102 % of control
- T/C [3]: 40 % of control

Structure (SMILES): O=[N+]([O-])O.O=[N+]([O-])O.[NH-]C1CCCCC1[NH-].[Pt+2] (stereo unspecified)
- T/C (endpoint: median tumor weight (est.), dose: 0.5 mg/kg/injection, schedule: Q07DX005 (ip), vehicle: dextrose): 46 % of control and 52 % of control
- T/C (endpoint: median tumor weight (est.), dose: 2.0 mg/kg/injection, schedule: Q07DX005 (ip), vehicle: dextrose): 50 % of control
- T/C (endpoint: median tumor weight (est.), dose: 4.0 mg/kg/injection, schedule: Q07DX005 (ip), vehicle: dextrose): 29 % of control and 38 % of control
- T/C (endpoint: median tumor weight (est.), dose: 8.0 mg/kg/injection, schedule: Q07DX005 (ip), vehicle: dextrose): 12 % of control and 29 % of control

Structure (SMILES): C[n+]1c2cc(N)ccc2cc2ccc(N)cc21
- T/C [12]: 104 % of control
- T/C [4]: 211 % of control

Structure (SMILES): COc1cccc2c1C(=O)c1c(O)c3c(c(O)c1C2=O)C[C@@](O)(C(=O)CO)C[C@@H]3OC1CC(N)CC(C)O1 (stereo partly specified)
- T/C (endpoint: median tumor weight change, dose: 1.8 mg/kg/injection, schedule: Q01DX001 (ip), vehicle: water): 187 % of control
- T/C (endpoint: median tumor weight change, dose: 3.75 mg/kg/injection, schedule: Q01DX001 (ip), vehicle: water): 94 % of control

Structure (SMILES): COC1=C(OC)C(=O)C(C/C=C(\C)CC/C=C(\C)CC/C=C(\C)CC/C=C(\C)CC/C=C(\C)CC/C=C(\C)CC/C=C(\C)CC/C=C(\C)CC/C=C(\C)CCC=C(C)C)=C(C)C1=O
- T/C [8]: 59 % of control
- T/C [9]: 67 % of control
- T/C [10]: 47 % of control
- T/C [11]: 93 % of control
- T/C (endpoint: median tumor weight (est.), dose: 200.0 mg/kg/injection, schedule: Q07DX005 (ip), vehicle: saline with Tween-80): 122 % of control
- T/C (endpoint: median tumor weight (est.), dose: 400.0 mg/kg/injection, schedule: Q07DX005 (ip), vehicle: saline with Tween-80): 76 % of control

Structure (SMILES): C[C@@]12C(=O)OC(=O)[C@]1(C)[C@H]1CC[C@@H]2O1
- T/C (endpoint: median tumor weight change, dose: 0.31 mg/kg/injection, schedule: Q01DX001 (ip), vehicle: Klucel (hydroxypropylcellulose) (HPC)): 100 % of control
- T/C (endpoint: median tumor weight change, dose: 1.25 mg/kg/injection, schedule: Q01DX001 (ip), vehicle: Klucel (hydroxypropylcellulose) (HPC)): 118 % of control

Structure (SMILES): ClC1=C(Cl)C(Cl)=C(Cl)C1=Cc1ccccc1
- T/C (endpoint: median tumor weight change, dose: 31.0 mg/kg/injection, schedule: Q01DX001 (ip), vehicle: saline with Tween-80): 100 % of control
- T/C (endpoint: median tumor weight change, dose: 62.0 mg/kg/injection, schedule: Q01DX001 (ip), vehicle: saline with Tween-80): 63 % of control
- T/C (endpoint: median tumor weight change, dose: 150.0 mg/kg/injection, schedule: Q01DX001 (ip), vehicle: saline with Tween-80): 33 % of control
- T/C (endpoint: median tumor weight change, dose: 300.0 mg/kg/injection, schedule: Q01DX001 (ip), vehicle: saline with Tween-80): 73 % of control
